# According to the supplement of paper PMC10307832:
# Key:
# Assay in all cases: relative viability (nuclei count vs DMSO), 5 days (fraction); higher = more cells survive
# MIM1 = compound: CC1=CSC(=NC2CCCCC2)N1/N=C/C3=C(C(=C(C=C3)O)O)O [MIM1]
# Procedure, shortened: (§1)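 On vehicle-anchored 1536-well plates, lung cancer cell lines held overnight at 37 °C were pinned with five library-drug doses (not always all listed) spaced by √10. With no medium change over 5 days, they were then fixed, permeabilised and Hoechst-stained in one step and imaged at 4×. MetaXpress counted nuclei, and viability is the median across plates of treated-well over vehicle-well nuclei. Acceptance needed control CV below 25% and at least one doubling.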
# Lenalidomide = compound: Nc1cccc2c1CN(C1CCC(=O)NC1=O)C2=O [Lenalidomide]
# Procedure, shortened: as §1
# Nilotinib = compound: Cc1cn(-c2cc(NC(=O)c3ccc(C)c(Nc4nccc(-c5cccnc5)n4)c3)cc(C(F)(F)F)c2)cn1 [Nilotinib]
# Procedure, shortened: as §1
# Luminespib = compound: CCNC(=O)c1noc(-c2cc(C(C)C)c(O)cc2O)c1-c1ccc(CN2CCOCC2)cc1 [Luminespib]
# Procedure, shortened: as §1
# Saracatinib = compound: CN1CCN(CCOc2cc(OC3CCOCC3)c3c(Nc4c(Cl)ccc5c4OCO5)ncnc3c2)CC1 [Saracatinib]
# Procedure, shortened: as §1
Cell Line,relative viability (MIM1; 0.2 µM),relative viability (MIM1; 0.6325 µM),relative viability (MIM1; 2 µM),relative viability (MIM1; 6.325 µM),relative viability (MIM1; 20 µM),relative viability (Lenalidomide; 0.253 µM),relative viability (Lenalidomide; 0.8 µM),relative viability (Lenalidomide; 2.53 µM),relative viability (Lenalidomide; 8 µM),relative viability (Nilotinib; 0.001 µM),relative viability (Nilotinib; 0.003162 µM),relative viability (Nilotinib; 0.01 µM),relative viability (Nilotinib; 0.03162 µM),relative viability (Nilotinib; 0.1 µM),relative viability (Luminespib; 0.002 µM),relative viability (Luminespib; 0.006325 µM),"relative viability (Luminespib; 0.01 µM, anchor plate)",relative viability (Luminespib; 0.02 µM),relative viability (Luminespib; 0.06325 µM),relative viability (Luminespib; 0.2 µM),relative viability (Saracatinib; 0.02 µM),relative viability (Saracatinib; 0.6325 µM),relative viability (Saracatinib; 2 µM),relative viability (Saracatinib; 0.2 µM)
NCI-H1734,1.02,0.871,0.953,0.476,0.182,1.01,1.07,1.09,0.798,0.918,1.14,1.21,0.687,0.402,0.999,0.902,0.198,0.634,0.159,0.15,1.06,0.86,0.783,
NCI-H1755,1,0.956,1.01,0.816,0.308,0.976,0.986,1.07,0.879,0.974,1.08,1.03,0.832,0.828,0.996,0.987,0.355,0.979,0.818,0.225,0.953,0.957,0.88,0.859
NCI-H1792,0.966,0.79,0.728,0.76,0.659,1.09,0.715,1.35,0.419,0.706,0.817,1.07,,0.831,0.926,0.71,0.52,0.348,0.167,0.107,1.09,1.03,0.776,0.726
NCI-H1793,0.874,,0.838,0.809,0.858,0.962,,1.08,0.37,0.91,1.22,1.28,0.623,0.204,0.775,0.84,0.192,0.248,0.137,0.15,0.909,1.01,0.666,0.674
NCI-H1915,1.01,0.702,0.922,0.477,0.398,0.971,0.836,1.08,0.96,0.916,1.07,1.11,0.955,0.432,0.86,0.878,0.795,0.878,0.859,0.119,0.993,1.02,0.911,0.91
NCI-H1944,0.982,0.864,0.63,0.568,0.477,0.989,0.743,0.973,0.713,1,1.11,1.21,0.924,0.988,0.936,0.954,0.749,0.595,0.721,0.333,0.996,0.915,0.555,
NCI-H1975,0.959,0.968,0.84,0.609,0.424,1.03,0.821,1.1,0.889,0.871,1,0.981,0.784,0.724,0.981,0.91,0.235,0.507,0.158,0.147,1.04,1.02,0.698,0.952
NCI-H1993,0.929,0.944,0.907,0.678,0.561,0.941,0.784,1.05,0.642,0.912,0.95,0.899,0.901,0.613,0.995,0.898,0.875,0.584,0.565,0.415,0.951,0.457,0.648,0.8
NCI-H2009,0.996,0.965,1.04,0.716,0.29,0.994,0.986,1.13,1.01,0.9,1.05,1.18,1,0.588,1.03,0.923,1.01,0.903,0.0828,0.0845,1.04,0.997,0.782,0.906
NCI-H2023,0.896,0.954,0.847,0.43,0.0909,0.928,1.04,1.13,0.968,0.916,0.9,1.31,0.83,0.537,0.903,0.999,0.769,0.5,0.062,0.058,1.04,0.905,0.821,0.663
NCI-H2085,0.995,0.974,1.02,0.817,0.947,0.975,0.811,1.06,0.944,1.03,1.06,1.12,0.91,0.754,0.964,0.931,0.466,0.779,0.576,0.384,1.02,1.09,0.967,0.893
NCI-H2087,1.03,0.943,1.03,0.696,0.583,1.03,0.892,1.14,0.888,0.813,0.981,0.992,0.443,0.299,1.07,0.894,0.192,0.625,0.143,0.122,1.11,1.11,1.01,0.873
NCI-H2126,1.04,0.91,1.04,0.897,0.688,1.01,0.859,1.08,0.788,0.995,1.09,1.03,0.937,0.601,0.967,0.962,0.919,0.646,0.756,0.26,1.07,0.931,0.816,0.965
NCI-H2170,0.943,0.907,1.02,0.603,0.28,1,0.979,1.01,0.782,0.864,1.16,1.2,0.875,0.952,0.974,0.945,0.732,0.586,0.793,0.179,1,0.986,0.689,0.926
